Data reported in patent publication US20190322643A1 (Georgia State University Research Foundation, Inc., priority 2016, published 2019).

Tests used:
[1] = molecular target: T1, Mouse histone methyltransferase G9a (969-1263) (Mus musculus, UniProt Q9Z148); test: MALDI-TOF methylation study of G9a inhibition; type: biochemical; conditions: inhibitors at 5 μM concentration for 30 min
T1 construct: The 6His-sumo mG9a (969-1263) protein was purified using the following procedure; 6His-sumo (cleaved yes); made in house; host or cells: Escherichia coli BL21 (DE3)
T1 sequence (Q9Z148 969-1263): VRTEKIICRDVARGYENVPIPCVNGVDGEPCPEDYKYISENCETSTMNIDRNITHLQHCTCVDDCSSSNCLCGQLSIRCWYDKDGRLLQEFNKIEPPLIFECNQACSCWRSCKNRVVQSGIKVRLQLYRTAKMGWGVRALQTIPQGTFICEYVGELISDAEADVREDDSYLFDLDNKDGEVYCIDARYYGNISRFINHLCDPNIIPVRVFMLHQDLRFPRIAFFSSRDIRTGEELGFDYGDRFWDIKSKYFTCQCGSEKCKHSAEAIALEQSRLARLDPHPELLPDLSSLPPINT

HDAC [2] = test: Cell based homogenous HDAC assay, A549; conditions: read-out: IC50-HDAC A549; A549 cells, mean ± SD of triplicate
Method: (§3) After 24 h, 9 μl inhibitors with different concentration were added to the HeLa cells and incubation was continued for 3 h under cell culture conditions. After this treatment period, 10 μl of a 2 mM stock solution of the substrate Boc-K(Ac)-AMC was added into the 96 well plates with Hela cells and inhibitors. […] A549 and K562 cell lines used the same method, respectively. IC50s were calculated using GraphPad Prizm statistical package with sigmoidal variable slope dose response curve fit.
(§4) Boc-K(Ac)-AMC was used as a cell-permeable HDAC substrate, as after deacetylation it is cleaved by trypsin to release the florescent 7-amino-4-methylcoumarin (AMC).

A549 = test: Cytotoxicity / anti-proliferation assay (CCK-8), A549; type: cell-based; conditions: Homo sapiens, 72 h, CCK-8 kit
Method: (§1) Then the cells were exposed to the different inhibitors with various concentrations for 72 h. […] EC50s were calculated using GraphPad Prizm statistical package with sigmoidal variable slope dose response curve fit.
(§2) Cell anti-proliferation assays were performed to determine the toxicity of these inhibitors. […] These compounds were further evaluated against the control cell line HEK293 to test their toxicity with a non-cancerous cell line.

HDAC [3] = test: Cell based homogenous HDAC assay, K562; conditions: read-out: IC50-HDAC K562; K562 cells, mean ± SD of triplicate
Method: as §3, §4

HDAC [4] = test: Cell based homogenous HDAC assay, Hela; conditions: read-out: IC50-HDAC Hela; Hela cells, mean ± SD of triplicate
Method: as §3, §4

MCF-7 = test: Cytotoxicity / anti-proliferation assay (CCK-8), MCF-7; type: cell-based; conditions: Homo sapiens, MCF7; 72 h, CCK-8 kit
Method: as §1, §2

MDA-MB-231 = test: Cytotoxicity / anti-proliferation assay (CCK-8), MDA-MB-231; type: cell-based; conditions: Homo sapiens, 72 h, CCK-8 kit, read-out: EC50 MDA-MB-231
Method: A549, MDA-MB-231, HCT-8, MCF-7, and HEK293 cells were seeded at 8000-10000 cells (100 μl) in white 96-well plates and pre-incubate the plate for 24 h under standard cell culture conditions, respectively. Then the cells were exposed to the different inhibitors with various concentrations for 72 h. Finally, 10 μl of CCK-8 kit solution was added to each well and incubated for 3-4 hours under standard cell culture conditions, and the 96 well plates were measured the absorbance at 450 nm using Perkin-Elmer Wallac Victor ^3V 1420 multi label plate reader (Perkin-Elmer, Wellesley, USA). EC50s were calculated using GraphPad Prizm statistical package with sigmoidal variable slope dose response curve fit.
as §2, with “inhibitors. Several cell lines (MDA-MB-231, MCF-7, A549 and HCT-8) were incubated and then treated with varying concentrations of the inhibitors for 72 h, respectively.” for “inhibitors.”

HCT-8 = test: Cytotoxicity / anti-proliferation assay (CCK-8), HCT-8; type: cell-based; conditions: Homo sapiens, 72 h, CCK-8 kit
Method: as §1, §2

inhibition at 5 µM [1]: 17.9 ± 5.51%
IC50 (HDAC [2]): > 100 µM
IC50 (HDAC [3]): > 100 µM
IC50 (HDAC [4]): > 100 µM
SMILES: CN1CCCN(c2nc(NC3CCN(Cc4ccccc4)CC3)c3ccc(OCCCCCCC(=O)NO)cc3n2)CC1 [Compound 30]
EC50 (A549): > 100 µM
EC50 (MCF-7): > 100 µM
EC50 (MDA-MB-231): 24 ± 3.64 µM
EC50 (HCT-8): > 100 µM
